Earlier results, collected in patent publication US20260014083A1, “Orally Administrable Pharmaceutical Dosage Form Comprising Lanthanum and Its Use in a Method Of Treatment of Hyperoxaluria” (AMGMT, priority 2022, published 2026).
Like-named read-outs stand apart in the source and are kept apart here.

Legend:
rat = details: oxalate loading
[1] = in vivo
[2] = system: patients with enteric hyperoxaluria

O=C([O-])[O-].O=C([O-])[O-].O=C([O-])[O-].[La+3].[La+3] [Lanthanum carbonate, lanthanum carbonate]
CaOx crystalluria (rat): decrease | calciuria (rat): minor increase | oxaluria (rat): decrease | phosphaturia (rat): striking increase

[Al] [aluminum]
calciuria (in vivo): increased calciuria

O=C([O-])[O-].[Ca+2] [calcium carbonate]
calciuria (current powerful phosphate binders): increased calciuria

[La] [lanthanum]
gastro-intestinal absorption [1]: 0.01%

B1: reloxaliase: an oral enzyme therapeutic (Allena Pharmaceuticals) (protein, UniProt O34714 1-385, looked up)
Oxalate decarboxylase OxdC: MKKQNDIPQPIRGDKGATVKIPRNIERDRQNPDMLVPPETDHGTVSNMKFSFSDTHNRLEKGGYAREVTVRELPISENLASVNMRLKPGAIRELHWHKEAEWAYMIYGSARVTIVDEKGRSFIDDVGEGDLWYFPSGLPHSIQALEEGAEFLLVFDDGSFSENSTFQLTDWLAHTPKEVIAANFGVTKEEISNLPGKEKYIFENQLPGSLKDDIVEGPNGEVPYPFTYRLLEQEPIESEGGKVYIADSTNFKVSKTIASALVTVEPGAMRELHWHPNTHEWQYYISGKARMTVFASDGHARTFNYQAGDVGYVPFAMGHYVENIGDEPLVFLEIFKDDHYADVSLNQWLAMLPETFVQAHLDLGKDFTDVLSKEKHPVVKKKCSK
modifications: crosslinked enzyme crystals
least square mean treatment difference ([2]; versus placebo, p=0.004): −14.3% | mean reduction in average 24-hour urinary oxalate excretion ([2]; weeks 1-4, placebo 9.7%): 22.6%
